Experimental data: ChEMBL document CHEMBL4373652, “Mechanism of thienopyridone and iminothienopyridinedione inhibition of protein phosphatases” (Medchemcomm, 2019)
Activity calls are given as the source filed them. The calls are words filed in the database; no cut-off is given here.

What was measured:
[1] = target: T1, Tyrosine-protein phosphatase non-receptor type 1 (Homo sapiens) (UniProt P18031); assay: Inhibition of human PTP1B at 25 nM using DiFMUP as substrate preincubated with enzyme prior to substrate addition by fluorescence based assay; details: TDE = time-dependent effect
T1 sequence (whole entry): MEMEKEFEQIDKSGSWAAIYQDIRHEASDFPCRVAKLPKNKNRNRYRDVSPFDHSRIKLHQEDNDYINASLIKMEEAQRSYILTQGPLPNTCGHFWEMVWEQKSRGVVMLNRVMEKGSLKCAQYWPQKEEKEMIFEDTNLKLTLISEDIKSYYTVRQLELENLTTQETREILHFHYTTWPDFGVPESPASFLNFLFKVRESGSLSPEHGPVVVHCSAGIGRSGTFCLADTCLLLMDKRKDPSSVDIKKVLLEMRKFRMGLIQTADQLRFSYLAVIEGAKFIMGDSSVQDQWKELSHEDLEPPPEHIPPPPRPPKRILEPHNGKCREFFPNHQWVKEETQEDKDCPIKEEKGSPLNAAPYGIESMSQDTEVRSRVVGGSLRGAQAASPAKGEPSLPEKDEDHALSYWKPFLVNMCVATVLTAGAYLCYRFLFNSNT

Mus musculus = species: Mus musculus; assay: Inhibition of mouse His-tagged PRL3 C49A mutant at 0.6 uM using DiFMUP as substrate preincubated with enzyme for 10 mins prior to substrate addition by fluorescence based assay relative to control
[2] = Induction of TCEP oxidation at 1 mM in 80% d6-acetone and 20% d6-DMSO incubated for 2 hrs by 15N-1H NMR spectroscopy relative to control
[3] = target: Protein tyrosine phosphatase type IVA 3 (Mus musculus) (UniProt Q9D658); assay: Inhibition of mouse His-tagged wild type PRL3 at 0.6 uM using DiFMUP as substrate preincubated with enzyme for 10 mins prior to substrate addition by fluorescence based assay relative to control
[4] = Induction of TCEP oxidation assessed as increase in rate of reduction of resazurin at 5 uM after 3 to 5 secs by resazurin based assay
[5] = Induction of TCEP oxidation assessed as increase in rate of reduction of resazurin at 5 uM incubated up to 2 hrs by resazurin based assay
[6] = Induction of glutathione oxidation at 1 mM incubated for 2 hrs in 80% d6-DMSO and 20% D2O by 15N-1H NMR spectroscopy relative to control
[7] = target: T2, Receptor-type tyrosine-protein phosphatase O (Homo sapiens) (UniProt Q16827); assay: (§1) Inhibition of recombinant human N-terminal His-tagged PTPRO expressed in bacterial expression system assessed as enzyme residual activity at 2 uM using DiFMUP as substrate preincubated with enzyme for 2.5 hrs prior to substrate addition measured for 1 min by fluorescence based assay
T2 sequence (whole entry): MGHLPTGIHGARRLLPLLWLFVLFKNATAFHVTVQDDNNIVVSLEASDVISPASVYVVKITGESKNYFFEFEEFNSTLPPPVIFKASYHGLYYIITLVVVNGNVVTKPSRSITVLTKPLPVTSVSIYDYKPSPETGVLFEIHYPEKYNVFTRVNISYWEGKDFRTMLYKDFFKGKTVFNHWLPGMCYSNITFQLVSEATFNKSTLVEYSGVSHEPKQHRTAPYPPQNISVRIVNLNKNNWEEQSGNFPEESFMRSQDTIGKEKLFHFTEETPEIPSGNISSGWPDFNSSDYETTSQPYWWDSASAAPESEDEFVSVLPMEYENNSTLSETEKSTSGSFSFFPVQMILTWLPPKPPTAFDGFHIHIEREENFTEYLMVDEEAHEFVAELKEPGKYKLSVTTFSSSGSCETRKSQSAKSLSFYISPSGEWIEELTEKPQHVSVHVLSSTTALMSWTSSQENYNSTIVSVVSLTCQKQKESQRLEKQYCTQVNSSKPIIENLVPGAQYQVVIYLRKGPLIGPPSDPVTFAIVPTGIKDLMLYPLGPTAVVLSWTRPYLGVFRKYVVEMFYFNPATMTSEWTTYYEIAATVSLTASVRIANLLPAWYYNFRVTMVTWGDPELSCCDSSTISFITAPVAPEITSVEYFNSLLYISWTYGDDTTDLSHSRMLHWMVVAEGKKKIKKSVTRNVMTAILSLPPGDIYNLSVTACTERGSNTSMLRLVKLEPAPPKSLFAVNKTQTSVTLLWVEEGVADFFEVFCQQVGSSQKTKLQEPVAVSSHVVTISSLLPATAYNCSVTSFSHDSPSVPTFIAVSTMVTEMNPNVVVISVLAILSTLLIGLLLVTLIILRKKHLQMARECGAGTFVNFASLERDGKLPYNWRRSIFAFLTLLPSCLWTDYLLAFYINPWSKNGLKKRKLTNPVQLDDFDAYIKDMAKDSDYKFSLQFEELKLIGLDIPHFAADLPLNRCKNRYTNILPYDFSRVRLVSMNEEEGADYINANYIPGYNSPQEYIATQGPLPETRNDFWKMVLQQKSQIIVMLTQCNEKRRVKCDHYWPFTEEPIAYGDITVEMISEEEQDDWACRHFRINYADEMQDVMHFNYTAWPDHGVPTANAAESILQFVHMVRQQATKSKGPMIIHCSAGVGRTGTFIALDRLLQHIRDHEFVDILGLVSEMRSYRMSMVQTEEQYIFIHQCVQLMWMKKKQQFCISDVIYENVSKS

[8] = target: T2, Receptor-type tyrosine-protein phosphatase O (Homo sapiens); assay: as §1, with “rate of product DiFMU formed” for “enzyme residual activity”, “assay (reference value: 209.7 nM/sec)” for “assay”
[9] = target: T3, Receptor-type tyrosine-protein phosphatase C (Homo sapiens) (UniProt P08575); assay: Inhibition of C-terminal 6His-tagged PTPRC (627-1228 residues) (unknown origin) expressed in Escherichia coli BL21 (DE3) at 2 uM using DiFMUP as substrate preincubated with enzyme and catalase for 2.5 hrs prior to substrate addition measured for 1 min by fluorescence based assay
T3 sequence (whole entry): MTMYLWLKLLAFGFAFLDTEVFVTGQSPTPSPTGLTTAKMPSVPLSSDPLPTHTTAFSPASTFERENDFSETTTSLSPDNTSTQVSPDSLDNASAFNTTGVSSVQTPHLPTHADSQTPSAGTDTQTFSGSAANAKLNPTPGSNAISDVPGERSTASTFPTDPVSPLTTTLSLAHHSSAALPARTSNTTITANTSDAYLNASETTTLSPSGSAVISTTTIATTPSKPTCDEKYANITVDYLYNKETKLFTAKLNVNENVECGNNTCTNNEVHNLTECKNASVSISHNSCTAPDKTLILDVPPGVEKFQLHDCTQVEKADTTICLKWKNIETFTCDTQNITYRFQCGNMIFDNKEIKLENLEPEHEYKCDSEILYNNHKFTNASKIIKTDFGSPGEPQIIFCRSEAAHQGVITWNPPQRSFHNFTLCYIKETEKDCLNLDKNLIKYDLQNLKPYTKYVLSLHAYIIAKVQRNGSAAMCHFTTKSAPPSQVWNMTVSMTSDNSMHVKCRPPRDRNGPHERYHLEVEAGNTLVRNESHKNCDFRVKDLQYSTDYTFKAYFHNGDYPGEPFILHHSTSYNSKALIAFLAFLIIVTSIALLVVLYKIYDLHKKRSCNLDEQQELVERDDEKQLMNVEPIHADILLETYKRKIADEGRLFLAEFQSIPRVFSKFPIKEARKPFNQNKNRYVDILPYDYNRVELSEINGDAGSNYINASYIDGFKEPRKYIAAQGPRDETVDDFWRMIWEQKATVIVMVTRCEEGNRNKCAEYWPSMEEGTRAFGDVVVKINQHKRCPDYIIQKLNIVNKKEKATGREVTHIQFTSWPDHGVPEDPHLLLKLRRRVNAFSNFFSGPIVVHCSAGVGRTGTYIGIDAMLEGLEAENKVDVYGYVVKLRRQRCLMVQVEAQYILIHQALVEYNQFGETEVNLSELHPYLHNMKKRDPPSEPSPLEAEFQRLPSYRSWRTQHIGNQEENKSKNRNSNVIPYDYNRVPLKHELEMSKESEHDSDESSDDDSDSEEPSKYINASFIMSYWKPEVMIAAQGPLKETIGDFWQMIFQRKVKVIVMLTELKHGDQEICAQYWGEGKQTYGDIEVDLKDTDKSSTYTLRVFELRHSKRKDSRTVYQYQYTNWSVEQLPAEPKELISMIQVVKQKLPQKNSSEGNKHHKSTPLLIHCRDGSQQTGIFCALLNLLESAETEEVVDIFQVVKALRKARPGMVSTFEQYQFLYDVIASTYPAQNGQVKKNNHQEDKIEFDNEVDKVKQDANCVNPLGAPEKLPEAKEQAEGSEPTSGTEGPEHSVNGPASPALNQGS

Homo sapiens = species: Homo sapiens; assay: Inhibition of recombinant human C-terminal 6His-tagged PTPN22 G126V/V147G double mutant expressed in bacterial expression system assessed as rate of product DiFMU formed at 2 uM using DiFMUP as substrate preincubated with enzyme for 2.5 hrs followed by substrate addition measured for 1 min by fluorescence based assay (reference value: 11.9 nM/sec)

Sequence of Protein tyrosine phosphatase type IVA 3 (Mus musculus) (Q9D658 whole entry): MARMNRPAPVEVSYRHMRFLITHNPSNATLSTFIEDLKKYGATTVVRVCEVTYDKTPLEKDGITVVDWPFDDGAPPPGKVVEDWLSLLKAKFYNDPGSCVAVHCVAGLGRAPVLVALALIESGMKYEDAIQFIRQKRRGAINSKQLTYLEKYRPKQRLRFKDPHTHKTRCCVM

inhibition (Mus musculus)	inhibition [3]	Activity [4]	Activity [6]	SMILES	inhibition [1]	fold change (FC) [2]	Activity [5]	Activity [7]	Activity [8]	inhibition [9]	Activity (Homo sapiens)
10%	55%	Active	70%	Nc1c[nH]c(=O)c2cc(-c3ccccc3)sc12	Tde	5	Active	–	–	–	–
–	–	–	–	N=C1C(=O)NC(=O)c2cc(-c3ccccc3)sc21	Tde	20	Active	7.3%	15.3 nM/s	inactive	0.3 nM/s
